Data published in US7326562B2, “Biological indicator system to detect effectiveness of sterilization” (priority 1999, dated 2008).

What was measured:
B. subtilis spores [1] = system: B. subtilis spores
Procedure: The sterilization cycle requires about 70 minutes to complete. […] The STERRAD* employed a non-biological indicator comprising a Chemical Indicator strip supplied by the manufacturer which changed from red to yellow (or lighter) as compared to the color bar on the strip when exposed to H2O2 during the processing cycle. Also, a BI (B. subtilis spore strips) was incubated in a nutrient broth for 7 days to determine successful sterilization.
For all H2O2 sterilized cultures, the BI challenge was one ml of B. subtilis spores at a concentration of 1.7×10^8/ml which were air-dried onto a glass slide as described previously elsewhere herein. After completion of the STERRAD Cycle of approximately 70 minutes, the BI culture was diluted and the cells were suspended in 5% BHI, as described above. The culture was diluted to the same concentration as the control BI and the sample was heat-shocked at 70° C. for 10 minutes and incubated at 37° C. for 24 hours to detect any viable cells present. MALS measurements were obtained at 0 minutes, 30 minutes, 1 hour, 2 hours, 3 hours, 4 hours, and 4.75 hours, and parallel samples were obtained for analysis by AODC direct counting. Direct plating on TSA was also performed to determine the presence of viable cells. […]

[2] = system: B. subtilis (Difco) spores; experiment: MALS (DAWN-F) measurement of spores directly after ozone treatment; format: cell-based, Bacillus subtilis; conditions: 0.3 ppm ozone; for MALS Intensity: no incubation
Source text: The MALS instrument used was the DAWN Model F (Wyatt Technology Corp., Santa Barbara, Calif.), which is a flow-through instrument permitting the liquid from a sample to pass through a flow cell while continuously making measurements on the particles as they pass through the cell. Otherwise, the instrument is virtually identical to the DAWN Model B previously described elsewhere herein.
(§1) Ozone model CD-1B (Aqua-Flo, Inc., Baltimore, Md.), equipped with voltage regulator and oxygen flow controls was used to generate an ozone doses of 0.3 to 0.35 ppm in water. Ozone was generated from oxygen, supplied from an oxygen tank with O2 purity of more than about 99.9%. The generator was fitted with a voltage regulator and an oxygen flow regulator which enabled the precise setting of oxygen flow and voltage parameters such that the desired concentration of O3 could be maintained continuously. An oxygen flow rate of 8 ft^3/hr, at 5 psi, and approximately 70 to 80 amps was used to generate the concentrations specified. Excess (head) ozone was passed through a platinum catalyst that converted it back to oxygen where it was released into a vented chemical safety hood.
(§2) By the use of toggle switches, the ozone was directed through glass spargers into either of two specifically designated 2-liter Erlenmeyer flasks containing one liter of distilled water. Either a solution of a test chemical or a suspension of microorganisms, or both, was introduced into the flasks via tubes at the top, which passed into the flasks through rubber stoppers that sealed off the system. Samples could be withdrawn at the bottom of the flasks by opening a stopcock. The ozone concentrations were measured using chemical oxidation of indigo dye using an Ozone Pocket Colorimeter™ per manufacturer's instructions (HACH, Inc., Loveland, Colo.). Bacillus spores, at a concentration of 2×10^6 spores/milliliter were exposed to ozone for treatment times of 0, 5, 10, 15, 20, and 30 minutes, after which times they were measured by MALS, AODC, and CFU, respectively.
(§3) Ozone treatment of microbes is representative of cold sterilization and disinfection. […] Bacillus subtilis spores, at an concentration of 2×10^6 spores/milliliter were exposed to ozone at treatment times of 0, 5, 10, 15, 20, and 30 minutes, at which times they were measured by MALS, AODC, and CFU, respectively. All measurements were made on spores immediately and without the need for incubation. […] These measurements could be correlated directly with the cumulative concentration of ozone with increasing time of exposure. […] For a kill of […] (reduction from 2.1×10^6 to 1.8×10^3 spores/ml) the CT is 0.3 ppm×15 min=4.5. For a kill of 99.995% (reduction from 2.1×10^6 to 10 spores/mL), it is 0.3 ppm×30 min=9.
(§4) Table 2 gives a direct comparison of MALS, AODC, and CFU data for ozone treatment of B. subtilis spores over at 5-minute intervals over a 30-min period. All MALS and AODC measurements were made on spores immediately after treatment, and in the absence of incubation. Spores were plated immediately onto Trypticase Soy Agar after treatment to verify the number of surviving spores (CFU).
(§5) Ozone treatment of microbes is representative of cold sterilization and disinfection.

[3] = system: B. subtilis (Difco) spores; experiment: Acridine orange direct counts (AODC) of spores directly after ozone treatment; format: cell-based, Bacillus subtilis; conditions: 0.3 ppm ozone
Procedure: One ml samples of the culture to be counted were placed into small conical vials and the cell culture was fixed by adding 30 μl of a 36.5-38.0% formalin solution. After fixing the culture with formalin for at least about 30 minutes, the sample was either refrigerated or the AO staining procedure was carried to completion. To stain, 100 μl of a 0.1% acridine orange solution were added to the 1.0 ml spore sample and the dye was allowed to react with the spores for approximately five to eight minutes. Polycarbonate membranes (Poretics®, Osmonics, Livermore Calif.) 25 mm in diameter, 0.2 μm porosity, and black in color were soaked in sterile, distilled water for about 5 to 10 minutes. The membranes were then placed on a millipore filter apparatus. One ml aliquots from control or treated samples which had been stained with AO were placed onto the filters and vacuum was applied. The samples were filtered until the fluid was removed. Then, the filter apparatus container from which the fluid had been removed was rinsed with distilled water to ensure that all cells or spores were impinged upon the filter surface. The filter was laid upon a clean microscope slide, a drop of mineral oil applied to the surface of the membrane, and a clean coverslip was laid onto the membrane.
The AODC slide was examined under a microscope using ultraviolet optics (Olympus VANOX-T equipped for light, phase-contrast, and UV-fluorescence microscopy) which microscope was also fitted with photographic and TV Monitoring equipment. A scaled grid in the eyepiece of the microscope permitted the direct counting of the bacterial spores, bacilli, or other bodies that are stained by the dye and which fluoresce under the UV optics. To determine the number of cells/spores in a sample, the number counted in the entire grid was multiplied by 3.3×10^4 and by any dilution factor of the sample.
as §2, §4, §5

[4] = target: B. subtilis (Difco) spores; experiment: Viable plate counts (CFU) on trypticase soy agar after ozone treatment; format: cell-based, Bacillus subtilis; conditions: for kill of the spore population / viable spores after treatment / CFU % of AODC / CFU % of Control / CFU/ml: 0.3 ppm ozone; for viable spores after treatment: reduction from 2.1×10^6; for CFU/ml: CFU after 24 hours incubation
Procedure: Dried spores from the sample vials or glass slides were eluted into sterile distilled water, plated directly, serially diluted (up to 10^−6), and plated onto TSA. After 18 to 24 hours of incubation at 37° C. for B. subtilis and 55° C. for B. stearothermophilus), the viable colony forming units (CFU) were counted. Plates that had no colonies were incubated for several more days (up to 7 days) to ensure that there were no damaged, but viable spores. From each of the same samples, Trypticase Soy broth was inoculated and incubated for up to seven days to ensure that there were no surviving bacteria in the negative assays.
The spores were eluted from the biological indicator slides or scintillation vials into 20 ml of sterile distilled water and 0.1 ml of the sample was spread onto TSA plates.
as §2, §3, §4, §5

[5] = system: B. stearothermophilus spores; experiment: Ozone treatment of B. stearothermophilus spores, MALS directly after treatment; format: cell-based, Bacillus stearothermophilus; conditions: about 0.3 ppm ozone, 5 to 20 min, 0 hours post-treatment
Source text: as §1
By the use of toggle switches, the ozone was directed through glass spargers into either of two specifically designated 2-liter Erlenmeyer flasks containing one liter of distilled water. […] The ozone concentrations were measured using chemical oxidation of indigo dye using an Ozone Pocket Colorimeter™ per manufacturer's instructions (HACH, Inc., Loveland, Colo.). Bacillus spores, at a concentration of 2×10^6 spores/milliliter were exposed to ozone for treatment times of 0, 5, 10, 15, 20, and 30 minutes, after which times they were measured by MALS, AODC, and CFU, respectively. […]

B. subtilis = conditions: 8% humidified ozone sterilization; cited from earlier work
B. stearothermophilus = conditions: 8% humidified ozone sterilization; cited from earlier work
B. subtilis spores [6] = experiment: Ethylene oxide sterilization of biological indicator; viability by MALS, AODC and TSA plating; format: cell-based, Bacillus subtilis
Procedure: The ethylene oxide sterilizer used herein was operated at the Department of Veterans Affairs, Processing & Distribution Section, VAHMCS Baltimore Division (Baltimore, Md.). The sterilizing cycle was fixed to include a 2.5 hour exposure to ethylene oxide followed by a de-gassing cycle of 14.5 hours. A non-biological indicator was used to also monitor the sterilization. A surgicot 2 (Surgicot, Research Triangle Park, N.C.) laminated EO Gas Indicator (Propper Manufacturing Co., Long Island, N.Y.) which registers a change in color after correct processing has been accomplished was used for this purpose.
After completion of the EO sterilization cycle, the BI culture was diluted and the spores were suspended in 5% BHI, as described above. […] Following heat-shock, the sample was incubated at 37° C. for 24 hours to ensure that viable cells could be detected if present. […] Direct plating on TSA was also performed to further determine the presence of viable cells.

SMILES: OO [H2O2, hydrogen peroxide]
- MALS N/No value (B. subtilis spores [1]; H2O2-sterilized BI after 3 hours of incubation vs control at 0 minutes): 1.0
- growth on TSA plates (B. subtilis spores [1]; STERRAD* cycle about 70 minutes, 10 plates on each of triplicate samples): no growth on any plate

SMILES: O=[O+][O-] [ozone]
- MALS % of control ([2]; 5 min treatment): 65.33%
- MALS Intensity ([2]; 5 min treatment, log weighted average of intensities at all detectors): 1591.92
- MALS % of control ([2]; 10 min treatment): 51.89%
- MALS Intensity ([2]; 10 min treatment): 1264.26
- MALS % of control ([2]; 15 min treatment): 42.67%
- MALS Intensity ([2]; 15 min treatment): 1039.64
- MALS % of control ([2]; 20 min treatment): 34.94%
- MALS Intensity ([2]; 20 min treatment): 851.5
- MALS % of control ([2]; 30 min treatment): 27.96%
- MALS Intensity ([2]; 30 min treatment): 681.2
- AODC % of control ([3]; 5 min treatment): 68.3%
- AODC Spores per ml ([3]; 5 min treatment): 1.6 × 10^6 spores per ml
- AODC % of control ([3]; 10 min treatment): 49.5%
- AODC Spores per ml ([3]; 10 min treatment): 1.16 × 10^6 spores per ml
- AODC % of control ([3]; 15 min treatment): 55.1%
- AODC Spores per ml ([3]; 15 min treatment): 1.29 × 10^6 spores per ml
- AODC % of control ([3]; 20 min treatment): 20.8%
- AODC Spores per ml ([3]; 20 min treatment): 4.87 × 10^5 spores per ml
- AODC % of control ([3]; 30 min treatment): 21.5%
- AODC Spores per ml ([3]; 30 min treatment): 5.03 × 10^5 spores per ml
- kill of the spore population ([4]; 5 min): 41.4%
- viable spores after treatment ([4]; 5 min): 1.23×10^6 spores/ml
- CFU % of AODC ([4]; 5 min treatment): 76.9%
- CFU % of Control ([4]; 5 min treatment): 58.5%
- CFU/ml ([4]; 5 min treatment): 1.23 × 10^6 CFU/ml
- CFU % of AODC ([4]; 10 min treatment): 14.5%
- CFU % of Control ([4]; 10 min treatment): 8.0%
- CFU/ml ([4]; 10 min treatment): 1.68 × 10^5 CFU/ml
- kill of the spore population ([4]; 15 min): 91%
- viable spores after treatment ([4]; 15 min): 1.8×10^3 spores/ml
- CFU % of AODC ([4]; 15 min treatment): 0.14%
- CFU % of Control ([4]; 15 min treatment): 0.09%
- CFU/ml ([4]; 15 min treatment): 1.80 × 10^3 CFU/ml
- CFU % of AODC ([4]; 20 min treatment): 0.04%
- CFU % of Control ([4]; 20 min treatment): 0.009%
- CFU/ml ([4]; 20 min treatment): 1.82 × 10^2 CFU/ml
- kill of the spore population ([4]; 30 min): 99.995%
- viable spores after treatment ([4]; 30 min): 10 spores/mL
- CFU % of AODC ([4]; 30 min treatment): 0.04%
- CFU % of Control ([4]; 30 min treatment): 0.00005%
- CFU/ml ([4]; 30 min treatment): 10 CFU/ml
- CT (concentration x time) value ([4]; 0.3 ppm×5 min): 1.5
- CT (concentration x time) value ([4]; 0.3 ppm×15 min): 4.5
- CT (concentration x time) value ([4]; 0.3 ppm×30 min): 9
- change in spore concentrations (MALS) [5]: decreases in spore concentrations with increasing exposure to ozone
- D value (time required to reduce the number of spores by 1 log) (B. subtilis): 5 minutes
- D value (time required to reduce the number of spores by 1 log) (B. stearothermophilus): 4.3 minutes

SMILES: C1CO1 [EO, ethylene oxide]
- bacterial growth of BI immersed in water (B. subtilis spores [6]; EO samples immersed within 10, 50, and 100 ml of water): all positive for bacterial growth
- viable colonies on TSA plates (B. subtilis spores [6]; spores dried on glass slide, 2.5 hour EO exposure, heat-shocked, incubated in 5% BHI): no viable colonies
- AODC direct counts during incubation (B. subtilis spores [6]; spores dried on glass slide, EO cycle, 0 to 4 hours incubation): no increase in direct counts
